# pIC50: −log10 of the molar value.
# Molecular target: T1, hMAGL (Homo sapiens, UniProt Q99685)
# T1 sequence (Q99685 1-303): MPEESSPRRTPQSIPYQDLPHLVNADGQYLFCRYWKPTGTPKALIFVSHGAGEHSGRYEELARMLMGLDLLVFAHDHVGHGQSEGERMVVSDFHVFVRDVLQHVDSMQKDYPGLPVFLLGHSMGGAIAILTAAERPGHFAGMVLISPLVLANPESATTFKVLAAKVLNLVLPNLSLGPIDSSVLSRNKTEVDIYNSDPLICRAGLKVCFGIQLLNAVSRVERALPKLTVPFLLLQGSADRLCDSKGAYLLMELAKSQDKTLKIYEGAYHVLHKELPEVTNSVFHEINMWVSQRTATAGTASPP
# Assay: 2-AG assay: MAGL inhibitory activity, hydrolysis of 2-arachidonoylglycerol to arachidonic acid followed by mass spectrometry
# Assay type: biochemical
# Settings: 15 min pre-incubation at RT, 30 min reaction at RT, 8 μM 2-arachidonoylglycerol
# Protocol: Compounds were profiled for MAGL inhibitory activity by determining the enzymatic activity by following the hydrolysis of the natural substrate 2-arachidonoylglycerol (2-AG) resulting in arachidonic acid, which can be followed by mass spectrometry. This assay is hereinafter abbreviated “2-AG assay”.
# The 2-AG assay was carried out in 384 well assay plates (PP, Greiner Cat #784201) in a total volume of 20 μL. Compound dilutions were made in 100% DMSO (VWR Chemicals 23500.297) in a polypropylene plate in 3-fold dilution steps to give a final concentration range in the assay from 12.5 μM to […]. 0.25 μL compound dilutions (100% DMSO) were added to 9 μL MAGL in assay buffer (50 mM TRIS (GIBCO, 15567-027), 1 mM EDTA (Fluka, 03690-100 mL), 0.01% (v/v) Tween. After shaking, the plate was incubated for 15 min at RT. To start the reaction, 10 μL 2-arachidonoylglycerol in assay buffer was added. The final concentrations in the assay was […] and 8 μM 2-arachidonoylglyerol. After shaking and 30 min incubation at RT, the reaction was quenched by the addition of 40 μL of ACN containing 4 μM of d8-arachidonic acid. The amount of arachidonic acid was traced by an online SPE system (Agilent Rapidfire) coupled to a triple quadrupole mass spectrometer (Agilent 6460). A C18 SPE cartridge (G9205A) was used in an ACN/water liquid setup. The mass spectrometer was operated in negative electrospray mode following the mass transitions 303.1→259.1 for arachidonic acid and 311.1→267.0 for d8-arachidonic acid. The activity of the compounds was calculated based on the ratio of intensities [arachidonic acid/d8-arachidonic acid].
row,Substance,pIC50
1,"(4aR,8aS)-6-(6-((5,5-difluoro-3-(1H-pyrrol-2-yl)-5H-4λ^4,5λ^4-dipyrrolo[1,2-c:2′,1′-f][1,3,2]diazaborinin-10-yl)methyl)-2-azaspiro[3.3]heptane-2-carbonyl)hexahydro-2H-pyrido[4,3-b][1,4]oxazin-3(4H)-one [Example 30]",10.30
2,"(4aR,8aS)-6-(6-((5,5-difluoro-3-phenyl-5H-4λ^4,5λ^4-dipyrrolo[1,2-c:2′,1′-f][1,3,2]diazaborinin-10-yl)methyl)-2-azaspiro[3.3]heptane-2-carbonyl)hexahydro-2H-pyrido[4,3-b][1,4]oxazin-3(4H)-one [Example 29]",9.18
3,"(4aR,8aS)-6-(6-((5,5-difluoro-5H-4λ^4, 5λ^4-dipyrrolo[1,2-c:2′,1′-f][1,3,2]diazaborinin-10-yl)oxy)-2-azaspiro[3.3]heptane-2-carbonyl)hexahydro-2H-pyrido[4,3-b][1,4]oxazin-3(4H)-one [Example 8]",7.10
4,"(4aR,8aS)-6-(7-((5,5-difluoro-5H-4λ^4, 5λ^4-dipyrrolo[1,2-c:2,1′-f][1,3,2]diazaborinin-10-yl)methyl)-2-azaspiro[3.5]nonane-2-carbonyl)hexahydro-2H-pyrido[4,3-b][1,4]oxazin-3(4H)-one [Example 19]",8.63
5,"(4aR,8aS)-6-(7-((5,5-difluoro-5H-4λ^4, 5λ^4-dipyrrolo[1,2-c:2,1′-f][1,3,2]diazaborinin-10-yl)methylene)-2-azaspiro[3.5]nonane-2-carbonyl)hexahydro-2H-pyrido[4,3-b][1, 4]oxazin-3(4H)-one [Example 18]",9.19
6,"(4aR,8aS)-6-(7-((5,5-difluoro-5H-4λ^4, 5λ^4-dipyrrolo[1,2-c:2,1′-f][1,3,2]diazaborinin-10-yl)oxy)-2-azaspiro[3.5]nonane-2-carbonyl)hexahydro-2H-pyrido[4,3-b][1,4]oxazin-3(4H)-one [Example 10]",8.42
7,"(6-(3-cyclopropyl-1H-1,2,4-triazol-1-yl)-2-azaspiro[3.3]heptan-2-yl)(6-((5,5-difluoro-5H-4λ^4,5λ^4-dipyrrolo[1,2-c:2,1′-f][1,3,2]diazaborinin-10-yl)methyl)-2-azaspiro[3.3]heptan-2-yl)methanone [Example 25]",9.47
8,"(6-((5,5-difluoro-5H-424, 5λ^4-dipyrrolo[1,2-c:2′,1′-f][1,3,2]diazaborinin-10-yl)methyl)-2-azaspiro[3.3]heptan-2-yl)(4-(5-methyloxazolo[4,5-b]pyridin-2-yl)piperazin-1-yl)methanone [Example 26]",7.77
9,"(R)-4-(3-(6-((5,5-difluoro-5H-4λ^4,5λ^4-dipyrrolo[1,2-c:2′,1′-f][1,3,2]diazaborinin-10-yl)methyl)-2-azaspiro[3.3]heptan-2-yl)-3-oxopropyl)oxazolidin-2-one [Example 28]",9.00

# — patent US20260241039A1, “FLUORESCENT PROBES FOR MAGL” (Hoffmann-La Roche Inc., priority 2022, published 2026)
